Measured values: ChEMBL document CHEMBL1201862, “PubChem BioAssay data set” (2004)
Active and inactive are the calls of the source. Cut-off read from the data, not from the text of the source, for most assays here: active = IC50 of 10 µM or less and inactive = more.

Assays:
Assay type in all cases: functional
[1] = biological target: Neuropeptides B/W receptor type 1 (Homo sapiens, UniProt P48145); test: human NPBW1 receptor blockade, IC50 – cell-based, fluorescence, dose response, set 6, late-stage follow-up (AID 588583)
[2] = biological target: Melanin-concentrating hormone receptor 1 (Homo sapiens, UniProt Q99705); test: Late-stage fluorescence-based counterscreen for antagonists of the G-protein coupled receptor 7 (GPR7): cell-based dose response assay to identify antagonists of the melanin-concentrating hormone receptor 1 (MCHR1) Set 6.
[3] = biological target: T1, DNA dC->dU-editing enzyme APOBEC-3G (Homo sapiens, UniProt Q9HC16); test: SAR analysis of small molecule inhibitors of APOBEC3G DNA Deaminase via a fluorescence-based single-stranded DNA deaminase assay - Set 2.; details: read-out: IC50_Mean
[4] = biological target: T2, DNA dC->dU-editing enzyme APOBEC-3A (Homo sapiens, UniProt P31941); test: SAR analysis of small molecule inhibitors of APOBEC3A DNA Deaminase via a fluorescence-based single-stranded DNA deaminase assay.; details: read-out: IC50_Mean
[5] = biological target: T1, DNA dC->dU-editing enzyme APOBEC-3G; test: inhibition of APOBEC3G ssDNA deamination – biochemical, fluorescence, single-stranded DNA substrate, SAR follow-up (AID 602136); details: read-out: IC50_Mean
[6] = biological target: T2, DNA dC->dU-editing enzyme APOBEC-3A; test: SAR analysis of small molecule inhibitors of APOBEC3A DNA Deaminase via a fluorescence-based single-stranded DNA deaminase assay - Set 2.; details: read-out: IC50_Mean

T1 sequence (Q9HC16 whole entry): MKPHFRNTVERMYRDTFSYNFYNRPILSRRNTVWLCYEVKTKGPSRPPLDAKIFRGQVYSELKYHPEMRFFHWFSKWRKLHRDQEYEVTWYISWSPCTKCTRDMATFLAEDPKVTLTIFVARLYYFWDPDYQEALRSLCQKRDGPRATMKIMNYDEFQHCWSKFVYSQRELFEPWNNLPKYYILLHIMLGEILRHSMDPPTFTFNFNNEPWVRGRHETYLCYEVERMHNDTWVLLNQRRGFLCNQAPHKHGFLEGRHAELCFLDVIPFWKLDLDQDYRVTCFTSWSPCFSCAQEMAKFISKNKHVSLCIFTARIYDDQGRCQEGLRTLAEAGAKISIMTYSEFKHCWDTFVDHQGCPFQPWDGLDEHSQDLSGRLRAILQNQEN
T2 sequence (P31941 whole entry): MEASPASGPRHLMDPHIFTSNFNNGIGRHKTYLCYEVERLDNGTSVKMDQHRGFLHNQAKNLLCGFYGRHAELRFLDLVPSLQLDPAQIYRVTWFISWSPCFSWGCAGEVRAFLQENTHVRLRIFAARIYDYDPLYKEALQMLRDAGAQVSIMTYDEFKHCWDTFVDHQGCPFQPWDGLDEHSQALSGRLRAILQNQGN
Neuropeptides B/W receptor type 1, sequence (P48145 whole entry): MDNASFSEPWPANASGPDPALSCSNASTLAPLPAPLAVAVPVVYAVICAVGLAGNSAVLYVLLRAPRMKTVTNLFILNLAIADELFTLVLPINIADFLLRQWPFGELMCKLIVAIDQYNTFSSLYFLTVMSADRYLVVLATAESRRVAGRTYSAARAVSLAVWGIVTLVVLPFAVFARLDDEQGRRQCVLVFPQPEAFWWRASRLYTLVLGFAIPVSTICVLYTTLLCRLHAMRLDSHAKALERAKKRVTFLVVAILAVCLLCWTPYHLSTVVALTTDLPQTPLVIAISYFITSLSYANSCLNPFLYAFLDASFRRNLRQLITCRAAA
Melanin-concentrating hormone receptor 1, sequence (Q99705 whole entry): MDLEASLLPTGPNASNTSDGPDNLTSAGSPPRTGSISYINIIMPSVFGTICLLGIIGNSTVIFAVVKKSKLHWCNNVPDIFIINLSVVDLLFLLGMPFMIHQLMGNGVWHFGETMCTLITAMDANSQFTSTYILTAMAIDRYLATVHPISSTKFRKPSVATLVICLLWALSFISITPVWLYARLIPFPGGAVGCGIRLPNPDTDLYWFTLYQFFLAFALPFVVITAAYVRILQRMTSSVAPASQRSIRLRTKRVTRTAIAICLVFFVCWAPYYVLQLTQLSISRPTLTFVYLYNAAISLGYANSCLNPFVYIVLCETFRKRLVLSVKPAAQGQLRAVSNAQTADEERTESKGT

Row | IC50 [1] | IC50 [2] | Compound | IC50 [3] | IC50 [4] | IC50 [5] | IC50 [6]
1 | 0.937 µM (active) | 0.937 µM (active) | N#CC(c1ccccc1F)c1c(Cl)cnn(Cc2cccc3ccccc23)c1=O (stereo unspecified) |  |  |  | 
2 |  |  | O=C(NCc1ccc2c(c1)OCO2)c1nn2cccnc2c1Cl | 49.9 µM (inactive) | > 99 µM (inactive) | > 99 µM (inactive) | > 99 µM (inactive)
